# Active and inactive are the calls of the source. No cut-off for these calls is given here.
# Tests used:
# Cholinesterase = Cholinesterase (Equus caballus, UniProt P81908); experiment: Inhibition of equine serum BChE using ATC iodide substrate by DTNB based assay
# Acetylcholinesterase = Acetylcholinesterase (Electrophorus electricus, UniProt O42275); experiment: Inhibition of electric eel AChE using ATC iodide substrate by DTNB based assay
# [1] = Selectivity index, ratio of IC50 for electric eel AChE to IC50 for quine serum BChE
# HT-22 [2] = experiment: Toxicity against mouse HT22 cells assessed as reduction in cell viability at 25 uM by MTT assay; assay type: cell-based; conditions: ht-22, 25 µM
# [3] = target: Cholinesterase (Equus caballus) (UniProt P81908); experiment: Inhibition of equine serum BChE at 100 uM using ATC iodide substrate by DTNB based assay
# Sequence of Cholinesterase (Equus caballus) (P81908 whole entry): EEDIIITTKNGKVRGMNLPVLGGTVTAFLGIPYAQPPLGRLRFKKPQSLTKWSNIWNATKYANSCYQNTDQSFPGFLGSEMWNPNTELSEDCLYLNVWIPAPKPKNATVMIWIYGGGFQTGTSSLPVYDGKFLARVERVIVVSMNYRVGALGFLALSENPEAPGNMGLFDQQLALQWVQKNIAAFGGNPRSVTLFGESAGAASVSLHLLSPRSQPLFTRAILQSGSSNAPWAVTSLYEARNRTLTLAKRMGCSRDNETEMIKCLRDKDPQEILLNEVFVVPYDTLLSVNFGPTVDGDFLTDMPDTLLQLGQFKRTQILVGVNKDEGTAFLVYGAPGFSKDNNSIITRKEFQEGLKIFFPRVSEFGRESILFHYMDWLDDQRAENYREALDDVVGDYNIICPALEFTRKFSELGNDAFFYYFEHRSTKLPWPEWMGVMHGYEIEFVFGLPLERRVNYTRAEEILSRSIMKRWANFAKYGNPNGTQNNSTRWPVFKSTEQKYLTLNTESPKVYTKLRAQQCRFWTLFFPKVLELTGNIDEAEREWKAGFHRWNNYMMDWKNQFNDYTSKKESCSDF
# HT-22 [4] = experiment: Neuroprotective activity in mouse HT22 cells assessed as reduction in glutamate-induced cytotoxicity at 1 to 25 uM by MTT assay; assay type: functional, cell-based
# [5] = target: Acetylcholinesterase (Electrophorus electricus) (UniProt O42275); experiment: Inhibition of electric eel AChE at 100 uM using ATC iodide substrate by DTNB based assay
# Sequence of Acetylcholinesterase (Electrophorus electricus) (O42275 24-633 limits assumed): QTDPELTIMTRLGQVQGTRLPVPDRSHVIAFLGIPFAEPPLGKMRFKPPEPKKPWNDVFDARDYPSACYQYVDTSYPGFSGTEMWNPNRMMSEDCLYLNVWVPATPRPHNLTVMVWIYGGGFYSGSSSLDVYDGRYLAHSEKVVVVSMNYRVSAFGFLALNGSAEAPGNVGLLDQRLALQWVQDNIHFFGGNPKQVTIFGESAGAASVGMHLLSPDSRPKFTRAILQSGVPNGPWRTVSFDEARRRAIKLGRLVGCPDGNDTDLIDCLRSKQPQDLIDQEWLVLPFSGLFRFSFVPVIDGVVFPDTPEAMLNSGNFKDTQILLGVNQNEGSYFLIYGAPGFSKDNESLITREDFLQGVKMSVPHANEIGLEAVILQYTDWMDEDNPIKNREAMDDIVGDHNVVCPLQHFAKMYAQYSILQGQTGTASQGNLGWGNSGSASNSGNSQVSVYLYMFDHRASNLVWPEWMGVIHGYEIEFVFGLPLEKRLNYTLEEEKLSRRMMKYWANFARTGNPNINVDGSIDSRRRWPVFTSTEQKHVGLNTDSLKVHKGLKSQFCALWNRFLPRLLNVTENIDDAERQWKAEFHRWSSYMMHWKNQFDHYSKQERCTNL
# HT-22 [6] = experiment: Neuroprotective activity in mouse HT22 cells assessed as reduction in glutamate-induced cytotoxicity at 10 to 25 uM by MTT assay; assay type: functional, cell-based
# [7] = target: Cholinesterase (Equus caballus) (UniProt P81908); experiment: Inhibition of equine serum BChE at 50 uM using ATC iodide substrate by DTNB based assay
# [8] = target: Acetylcholinesterase (Electrophorus electricus) (UniProt O42275); experiment: Inhibition of electric eel AChE at 50 uM using ATC iodide substrate by DTNB based assay
# HT-22 [9] = experiment: Toxicity against mouse HT22 cells assessed as reduction in cell viability at 5 uM by MTT assay; assay type: cell-based; conditions: ht-22, 5 µM
# [10] = target: Cholinesterase (Equus caballus) (UniProt P81908); experiment: Time dependent inhibition of equine serum BChE at 5 to 100 nM; conditions: TDE = time-dependent effect
# [11] = target: Cholinesterase (Equus caballus) (UniProt P81908); experiment: Inhibition of equine serum BChE assessed as rate constant of carbamoyl-enzyme formation pre-incubated for 2 to 20 mins by enzyme kinetic assay
# [12] = target: Cholinesterase (Equus caballus) (UniProt P81908); experiment: Inhibition of equine serum BChE assessed as rate constant of carbamoyl-enzyme formation pre-incubated for 80 mins by enzyme kinetic assay
# [13] = target: Cholinesterase (Equus caballus) (UniProt P81908); experiment: Inhibition of equine serum BChE assessed as stability constant of inhibitor-enzyme complex pre-incubated for 2 to 20 mins by enzyme kinetic assay
# HT-22 [14] = experiment: Toxicity against mouse HT22 cells assessed as reduction in cell viability at 1 to 25 uM by MTT assay; assay type: cell-based; conditions: ht-22, 25 µM
# [15] = target: Acetylcholinesterase (Homo sapiens) (UniProt P22303); experiment: Inhibition of human erythrocyte AChE pre-incubated for 20 mins by enzyme kinetic assay
# Sequence of Acetylcholinesterase (Homo sapiens) (P22303 whole entry): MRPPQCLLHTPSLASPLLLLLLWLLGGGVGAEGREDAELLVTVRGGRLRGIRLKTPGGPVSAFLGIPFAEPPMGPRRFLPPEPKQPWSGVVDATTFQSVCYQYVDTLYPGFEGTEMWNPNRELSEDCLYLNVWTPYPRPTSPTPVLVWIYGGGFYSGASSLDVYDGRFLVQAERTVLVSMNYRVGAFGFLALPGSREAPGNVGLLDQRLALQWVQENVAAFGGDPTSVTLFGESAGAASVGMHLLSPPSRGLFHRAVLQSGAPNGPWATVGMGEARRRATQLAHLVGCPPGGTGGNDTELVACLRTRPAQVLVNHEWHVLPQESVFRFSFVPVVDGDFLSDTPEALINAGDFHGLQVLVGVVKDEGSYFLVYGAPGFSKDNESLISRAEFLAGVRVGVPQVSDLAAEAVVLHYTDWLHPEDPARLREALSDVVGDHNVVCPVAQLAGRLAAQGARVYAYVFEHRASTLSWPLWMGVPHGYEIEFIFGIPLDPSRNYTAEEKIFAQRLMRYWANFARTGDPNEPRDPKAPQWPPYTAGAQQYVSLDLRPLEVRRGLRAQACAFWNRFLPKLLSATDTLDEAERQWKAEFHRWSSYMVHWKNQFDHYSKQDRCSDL
# [16] = target: Acetylcholinesterase (Electrophorus electricus) (UniProt O42275); experiment: Inhibition of electric eel AChE assessed as rate constant of carbamoyl-enzyme formation pre-incubated for 2 to 20 mins by enzyme kinetic assay
# [17] = target: Cholinesterase (Equus caballus) (UniProt P81908); experiment: Time dependent inhibition of equine serum BChE at 25 to 250 nM; conditions: TDE = time-dependent effect
# [18] = target: Acetylcholinesterase (Homo sapiens) (UniProt P22303); experiment: Inhibition of human erythrocyte AChE pre-incubated for 2 mins by enzyme kinetic assay
# [19] = target: Acetylcholinesterase (Electrophorus electricus) (UniProt O42275); experiment: Inhibition of electric eel AChE assessed as stability constant of inhibitor-enzyme complex pre-incubated for 2 to 20 mins by enzyme kinetic assay
# [20] = Antioxidant activity assessed as AAPH-induced peroxyl radicals scavenging activity by measuring Trolox equivalents by oxygen radical absorbance capacity-fluorescein assay; assay type: physicochemical
# HT-22 [21] = experiment: Neuroprotective activity in mouse HT22 cells assessed as reduction in glutamate-induced cytotoxicity at 5 to 25 uM by MTT assay; assay type: functional, cell-based
# HT-22 [22] = experiment: Neuroprotective activity in mouse HT22 cells assessed as reduction in glutamate-induced cytotoxicity at 25 uM by MTT assay; assay type: functional, cell-based
# Sequence of Acetylcholinesterase (O42275 whole entry): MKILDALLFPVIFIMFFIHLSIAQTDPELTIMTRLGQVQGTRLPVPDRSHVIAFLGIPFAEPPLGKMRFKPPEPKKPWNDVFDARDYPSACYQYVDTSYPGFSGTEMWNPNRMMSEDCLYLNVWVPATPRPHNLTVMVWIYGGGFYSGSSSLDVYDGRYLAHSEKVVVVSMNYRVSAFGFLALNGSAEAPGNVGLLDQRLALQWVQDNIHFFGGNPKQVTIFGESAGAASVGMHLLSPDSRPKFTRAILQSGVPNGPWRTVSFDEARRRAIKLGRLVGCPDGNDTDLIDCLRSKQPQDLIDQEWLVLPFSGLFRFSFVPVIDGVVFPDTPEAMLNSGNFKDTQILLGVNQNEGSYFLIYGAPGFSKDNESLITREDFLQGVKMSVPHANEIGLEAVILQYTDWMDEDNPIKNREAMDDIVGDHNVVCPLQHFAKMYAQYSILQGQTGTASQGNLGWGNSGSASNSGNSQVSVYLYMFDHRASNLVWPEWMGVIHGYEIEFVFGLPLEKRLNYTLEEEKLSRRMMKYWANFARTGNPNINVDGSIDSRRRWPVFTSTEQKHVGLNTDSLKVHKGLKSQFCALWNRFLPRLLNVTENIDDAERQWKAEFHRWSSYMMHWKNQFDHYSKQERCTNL
# Sequence of Cholinesterase (P81908 whole entry): as the sequence (P81908 whole entry) above
Compound,IC50 (Cholinesterase; read-out: IC50),IC50 (Acetylcholinesterase; read-out: IC50),Ratio IC50 [1],also measured
CCCCCCCNC(=O)Oc1ccc2c(c1)C(=O)N1CCCN=C1N2C,0.14 µM,3.64 µM,26.1,–
COc1cccc(NC(=O)Oc2ccc3c(c2)C(=O)N2CCCN=C2N3C)c1,52.2 µM,2.9 µM,0.06,–
O=c1c2cc(O)ccc2nc2n1CCCN2,–,55.6 µM,0.28,IC50 (Acetylcholinesterase; read-out: pIC50 (converted)): 55 µM; Activity (HT-22 [2]): Toxic; inhibition [3]: 24%; Activity (HT-22 [4]): inactive
CC(C)c1ccc(NC(=O)Oc2ccc3nc4n(c(=O)c3c2)CCCN4C)cc1,17.7 µM,–,> 5.6,inhibition [5]: 50%
COc1cccc(NC(=O)Oc2ccc3nc4n(c(=O)c3c2)CCCN4CCCN2CCCCC2)c1,0.45 µM,7.3 µM,16.2,IC50 (Cholinesterase; read-out: pIC50 (converted)): 25.7 µM
CN1CCCN2Cc3cc(OCc4ccccc4)ccc3N=C12,4.17 µM,0.826 µM,0.2,–
O=c1c2cc(O)ccc2nc2n1CCCN2CCCN1CCCCC1,22.7 µM,22.9 µM,1,Activity (HT-22 [6]): inactive
CC(C)c1ccc(NC(=O)Oc2ccc3nc4n(c(=O)c3c2)CCCN4)cc1,–,–,0.5,inhibition [7]: 19%; inhibition [8]: 34%
COc1cccc(NC(=O)Oc2ccc3nc4n(c(=O)c3c2)CCCN4Cc2ccccc2)c1,–,–,–,inhibition [7]: 11%; inhibition [8]: 35%
CC(C)c1ccc(NC(=O)Oc2ccc3nc4n(c(=O)c3c2)CCCN4CCCN2CCCCC2)cc1,0.25 µM,0.78 µM,3.1,–
CCCCCCCNC(=O)Oc1ccc2nc3n(c(=O)c2c1)CCCN3Cc1ccccc1,25.3 µM,88.8 µM,3.51,–
CCCCNC(=O)Oc1ccc2nc3n(c(=O)c2c1)CCCN3C,44.3 µM,16.3 µM,0.37,–
O=C1c2ccccc2NC2=NCCCN12,–,29.6 µM,0.3,Activity (HT-22 [9]): Toxic; inhibition [3]: 47%; Activity (HT-22 [4]): inactive
CC(C)c1ccc(NC(=O)Oc2ccc3nc4n(c(=O)c3c2)CCCN4Cc2ccccc2)cc1,–,–,–,inhibition [7]: 6%; inhibition [8]: 30%
COc1cccc(NC(=O)Oc2ccc3nc4n(c(=O)c3c2)CCCN4C)c1,12.6 µM,5.46 µM,0.33,–
CN1C2=NCCCN2C(=O)c2cc(OC(=O)Nc3ccc(C(C)(C)C)cc3)ccc21,–,0.2 µM,< 0.004,–
CCCCCCCNC(=O)Oc1ccc2nc3n(c(=O)c2c1)CCCN3CCCN1CCCCC1,0.0247 µM,7.95 µM,322,inhibition [10]: tde; K [11]: 0.125 min⁻¹; inhibition [12]: inactive; K [13]: 1.3 nM; Activity (HT-22 [14]): Non-toxic; Activity (HT-22 [4]): inactive

Compound,IC50 (Cholinesterase; read-out: IC50),IC50 (Acetylcholinesterase; read-out: IC50),Ratio IC50 [1],also measured
CN1C2=NCCCN2C(=O)c2cc(OCc3ccccc3)ccc21,21.4 µM,0.7 µM,0.03,–
CCCCNC(=O)Oc1ccc2c(c1)C(=O)N1CCCN=C1N2C,43.9 µM,3.84 µM,0.09,–
CC(C)c1ccc(NC(=O)Oc2ccc3c(c2)C(=O)N2CCCN=C2N3C)cc1,3.26 µM,0.0837 µM,0.03,inhibition [15]: inactive; K [16]: 0.09 min⁻¹; inhibition [12]: inactive; inhibition [17]: tde; inhibition [18]: Active; Activity (HT-22 [14]): Non-toxic; K [19]: 43.5 nM; Activity (HT-22 [4]): inactive
O=c1c2cc(OCc3ccccc3)ccc2nc2n1CCCN2CCCN1CCCCC1,0.81 µM,1.31 µM,1.6,IC50 (Acetylcholinesterase; read-out: pIC50 (converted)): 1.35 µM
CCCCNC(=O)Oc1ccc2nc3n(c(=O)c2c1)CCCN3CCCN1CCCCC1,1.1 µM,6.91 µM,6.35,–
CCCCNC(=O)Oc1ccc2c(c1)CN1CCCN(C)C1=N2,1.34 µM,3.13 µM,2.31,IC50 (Cholinesterase; read-out: pIC50 (converted)): 3.89 µM
CCCCCCCNC(=O)Oc1ccc2c(c1)CN1CCCN(C)C1=N2,0.63 µM,3.36 µM,5.31,–
CN1CCCn2c1nc1ccc(OCc3ccccc3)cc1c2=O,81.7 µM,15.6 µM,0.21,–
CCCCCCCNC(=O)Oc1ccc2nc3n(c(=O)c2c1)CCCN3C,1.75 µM,5.98 µM,3.41,–
O=c1c2cc(O)ccc2nc2n1CCCN2Cc1ccccc1,–,–,–,Activity [20]: 1.56 equiv; Activity (HT-22 [21]): Active; inhibition [7]: 40%; Activity (HT-22 [14]): Non-toxic; Activity (HT-22 [2]): Toxic; inhibition [8]: 41%
CNC(=O)Oc1ccc2c(c1)[C@]1(C)CCN(C)[C@@H]1N2C,–,–,–,K [11]: 0.067 min⁻¹; K [16]: 0.123 min⁻¹; K [13]: 41.1 nM; K [19]: 34.3 nM
CN1C2=NCCCN2C(=O)c2cc(O)ccc21,55.5 µM,11.8 µM,0.21,Activity (HT-22 [6]): inactive; Activity (HT-22 [14]): Non-toxic; Activity (HT-22 [4]): inactive
CN1CCCN2Cc3cc(O)ccc3N=C12,–,15.9 µM,< 0.3,Activity [20]: 1.34 equiv; Activity (HT-22 [6]): inactive; inhibition [7]: 53%; Activity (HT-22 [14]): Non-toxic; Activity (HT-22 [22]): Active; Activity (HT-22 [4]): inactive
CN1CCCn2c1nc1ccc(O)cc1c2=O,–,–,–,Activity [20]: 1.54 equiv; Activity (HT-22 [6]): Active; inhibition [7]: 9%; Activity (HT-22 [14]): Non-toxic; inhibition [8]: 61%
O=c1c2cc(OCc3ccccc3)ccc2nc2n1CCCN2,–,19.3 µM,0.19,IC50 (Acetylcholinesterase; read-out: pIC50 (converted)): 19.1 µM; inhibition [7]: 20%
O=c1c2cc(OCc3ccccc3)ccc2nc2n1CCCN2Cc1ccccc1,–,–,–,inhibition [5]: 20%; inhibition [3]: 10%
CCCCNC(=O)Oc1ccc2nc3n(c(=O)c2c1)CCCN3Cc1ccccc1,–,–,–,inhibition [7]: 8%; inhibition [8]: 41%

# — ChEMBL document CHEMBL3351595, “Cyclic acyl guanidines bearing carbamate moieties allow potent and dirigible cholinesterase inhibition of either acetyl- or butyrylcholinesterase” (Bioorg Med Chem, 2014)
